Drawing on ChEMBL document CHEMBL1157164, “Computational analysis of the binding affinities of the natural-product cyclopentapeptides argifin and argadin to chitinase B from Serratia marcescens” (Bioorg Med Chem, 2008), this text covers IC50 and Ki for 2 molecules.

The target in assay [1] is T1, Chitinase B (Serratia marcescens, UniProt P11797).
T1 sequence (P11797 whole entry): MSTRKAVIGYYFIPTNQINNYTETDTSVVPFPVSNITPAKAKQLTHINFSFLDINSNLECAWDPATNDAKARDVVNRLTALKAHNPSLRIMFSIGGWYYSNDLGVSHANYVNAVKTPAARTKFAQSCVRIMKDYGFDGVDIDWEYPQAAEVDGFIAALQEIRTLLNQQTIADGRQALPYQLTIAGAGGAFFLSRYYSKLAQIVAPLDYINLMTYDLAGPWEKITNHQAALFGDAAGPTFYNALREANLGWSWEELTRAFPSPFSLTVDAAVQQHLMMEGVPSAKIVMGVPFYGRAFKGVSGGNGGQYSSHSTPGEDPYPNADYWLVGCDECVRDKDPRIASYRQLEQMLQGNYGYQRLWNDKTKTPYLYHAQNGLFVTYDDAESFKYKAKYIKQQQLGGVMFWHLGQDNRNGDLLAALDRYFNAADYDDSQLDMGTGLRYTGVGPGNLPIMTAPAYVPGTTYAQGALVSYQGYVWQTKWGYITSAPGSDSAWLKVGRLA
Kind of assay: Binding affinity to Serratia marcescens chitinase B.

Assay [2] is described as follows: Inhibition of Lucilia cuprina chitinase B.

Consider `CNC(=O)NC(=N)NCCC[C@@H]1NC(=O)[C@@H](C)NC(=O)C[C@@H](C(=O)O)NC(=O)C[C@@H](C(=O)O)NC(=O)[C@H](Cc2ccccc2)N(C)C1=O` [ARGIFIN], for which, in assay [1], the IC50 was found to be 100 nM. Also, the inhibitory constant (Ki) in assay [2] is 33000 nM.
On to `CC(=O)NC(=N)NCCC[C@@H]1NC(=O)[C@H](CCCC(=O)O)NC(=O)[C@H](Cc2c[nH]cn2)N2C(=O)[C@H](C[C@H]2O)NC(=O)[C@H]2CCCN2C1=O` [ARGADIN], for which the IC50 in assay [1] turned out to be 3.4 nM. For the same molecule, the affinity in assay [2] corresponds to a Ki of 20 nM.

One may read the IC50 as the midpoint of a concentration-inhibition curve. A higher IC50 goes with weaker potency. In general, Ki refers to a measure of affinity in units of concentration, obtained from inhibition or displacement.
